{"source": "patent US10654816B2", "about": "“Compounds and compositions for treating conditions associated with NLRP activity” (NOVARTIS INFLAMMASOME RESEARCH, INC., priority 2017, dated 2020)"}
{"tested_on": "IL-1β production in PMA-differentiated THP-1 cells", "assay": "IL-1β production in PMA-differentiated THP-1 cells stimulated with gramicidin (hTHP-1 assay, HTRF readout; Procedures 1-3)", "format": "cell-based, human", "details": "Homo sapiens, THP-1, hTHP-1 assay containing 2% fetal bovine serum; average; class symbols; read-out: hTHP-1 IC50 (Average IC50 of compounds in hTHP-1 assay)", "outline": "(§1)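 PMA-differentiated (20 ng/ml, 16-18 h) THP-1 cells in RPMI with 2% FBS, 50,000 cells/well, preincubated 1 h with compound (final 0.0017-100 μM, 0.37% DMSO), then stimulated with 5 μM gramicidin for 2 h. IL-1β in cell-free supernatant measured by HTRF (620/668 nm).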", "units": {"IC50": "nM"}}
{"smiles": "C#CCCC(=O)N(C)Cc1ccc(S(N)(=O)=NC(=O)Nc2c3c(cc4c2CCC4)CCC3)cc1", "note": "(single isomer, unassigned) [Example 312, (S) or (R)-N-(4-(N′-((1,2,3,5,6,7-hexahydro-s-indacen-4-yl)carbamoyl)sulfamid-imidoyl)benzyl)-N-methylpent-4-ynamide]", "IC50": "1000 to 5000"}
{"smiles": "CC(C)(O)c1cc(S(N)(=O)=NC(=O)Nc2c3c(cc4c2CCC4)CCC3)nn1-c1ccccc1", "note": "(stereo not drawn) [Example 259, N′-((1,2,3,5,6,7-hexahydro-s-indacen-4-yl)carbamoyl)-5-(2-hydroxypropan-2-yl)-1-phenyl-1H-pyrazole-3-sulfonimidamide]", "IC50": "200 to 1000"}
{"smiles": "CC(C)c1cc(F)cc(C(C)C)c1NC(=O)N=S(N)(=O)c1cccc(C(C)(C)O)c1", "note": "(stereo not drawn) [Example 22, N′-(4-fluoro-2,6-diisopropylphenylcarbamoyl)-3-(2-hydroxypropan-2-yl)benzenesulfonimidamide]", "IC50": "1000 to 5000"}
{"smiles": "CC(C)c1cc(C#N)cc(C(C)C)c1NC(=O)N=S(N)(=O)c1ccc(S(C)(=O)=O)cc1", "note": "(stereo not drawn) [Example 73, N′-((4-cyano-2,6-diisopropylphenyl)carbaoyl)-4-(methylsulfonyl)benzenesulfonim idamide]", "IC50": "1000 to 5000"}
{"smiles": "Cn1ncc2cc(S(N)(=O)=NC(=O)Nc3c4c(cc5c3CCC5)CCC4)ccc21", "note": "(single isomer, unassigned) [Example 397, (R) or (S)-N′-((1,2,3,5,6,7-hexahydro-s-indacen-4-yl)carbamoyl)-1-methyl-1H-indazole-5-sulfonimidamide]", "IC50": "1000 to 5000"}
{"smiles": "Cc1ccc(-c2c3c(c(NC(=O)N=S(N)(=O)c4ncc(C(C)(C)O)s4)c4c2CCC4)CCC3)cc1C", "note": "(stereo not drawn) [Example 427, 1-{Amino[5-(2-hydroxypropan-2-yl)-1,3-thiazol-2-yl]oxo-λ^6-sulfanylidene}-3-[8-(3,4-dimethylphenyl)-1,2,3,5,6,7-hexahydro-s-indacen-4-yl]urea]", "IC50": "5000 to 30000"}
{"smiles": "Cc1oc(S(N)(=O)=NC(=O)Nc2c(C(C)C)cncc2C(C)C)cc1C(C)(C)O", "note": "(stereo not drawn) [Example 222, N′-((3,5-diisopropylpyridin-4-yl)carbamoyl)-4-(2-hydroxypropan-2-yl)-5-methylfuran-2-sulfonimidamide]", "IC50": "200 to 1000"}
{"smiles": "NS(=O)(=NC(=O)Nc1c2c(cc3c1CCC3)CCC2)c1ccc(CN2CCCC2=O)cc1", "note": "(stereo not drawn) [Example 244]", "IC50": "5000 to 30000"}
{"smiles": "CC(C)c1cc(F)cc(C(C)C)c1NC(=O)N=S(N)(=O)c1cc(C(C)(C)O)cs1", "note": "(stereo not drawn) [Example 40, N′-(4-fluoro-2,6-diisopropylphenylcarbamoyl)-4-(2-hydroxypropan-2-yl)thiophene-2-sulfonimidamide]", "IC50": "40 to 200"}
{"smiles": "NCc1ccc(S(N)(=O)=NC(=O)Nc2c3c(cc4c2CCC4)CCC3)cc1", "note": "(single isomer, unassigned) [Example 411, (R) or (S)-4-(aminomethyl)-N′-((1,2,3,5,6,7-hexahydro-s-indacen-4-yl)carbamoyl)benzene-sulfonimidamide]", "IC50": "1000 to 5000"}
{"smiles": "NS(=O)(=NC(=O)Nc1c2c(cc3c1CCC3)CCC2)c1ccc(CN2CCC2)cc1", "note": "(stereo not drawn) [Example 237, 4-(Azetidin-1-ylmethyl)-N′-(1,2,3,5,6,7-hexahydro-s-indacen-4-ylcarbamoyl)benzenesulfonimidamide]", "IC50": "1000 to 5000"}
{"smiles": "CC(=O)N(C)Cc1ccc(S(N)(=O)=NC(=O)Nc2c3c(cc4c2CCC4)CCC3)cc1", "note": "(single isomer, unassigned) [Example 366, (R) or (S)-N-(4-(N′-((1,2,3,5,6,7-hexahydro-s-indacen-4-yl)carbamoyl)sulfamid-imidoyl)benzyl)-N-methylacetamide]", "IC50": "1000 to 5000"}
{"smiles": "CC(C)c1cc(F)cc(C(C)C)c1NC(=O)N=S(N)(=O)c1ccc(C(C)(C)O)cc1", "note": "(single isomer, unassigned) [Example 83, (S)- or (R)-N′-(4-fluoro-2,6-diisopropylphenylcarbamoyl)-4-(2-hydroxypropan-2-yl)benzenesulfonimidamide]", "IC50": "1000 to 5000"}
{"smiles": "CC(C)(O)c1ncc(S(N)(=O)=NC(=O)Nc2c3c(cc4c2C(O)CC4)CCC3)s1", "note": "(single isomer, unassigned) [Example 370, (R, R/S) or (S, R/S)-N′-((3-hydroxy-1,2,3,5,6,7-hexahydro-s-indacen-4-yl)carbamoyl)-2-(2-hydroxypropan-2-yl)thiazole-5-sulfonimidamide]", "IC50": "200 to 1000"}
{"smiles": "CC(C)c1cc(F)cc(C(C)C)c1NC(=O)N=S(N)(=O)c1ccc(CN(C)C)cc1", "note": "(stereo not drawn) [Example 36, 4-((dimethylamino)methyl)-N′-(4-fluoro-2,6-diisopropylphenylcarbamoyl)-benzenesulfoniniidamide]", "IC50": "1000 to 5000"}
{"smiles": "NS(=O)(=NC(=O)Nc1c2c(cc3c1CCC3)CCC2)c1ccc(CO)cc1", "note": "(stereo not drawn) [Example 233, 1-[amino[4-(hydroxymethyl)phenyl]oxo-λ^6-sulfanylidene]-3-(1,2,3,5,6,7-hexahydro-s-indacen-4-yl)urea]", "IC50": "1000 to 5000"}
{"smiles": "CC(C)(O)c1ccc(F)c(S(N)(=O)=NC(=O)Nc2c3c(c(F)c4c2CCC4)CCC3)c1", "note": "(single isomer, unassigned) [Example 168, (S)- or (R)-2-fluoro-N′-((8-fluoro-1,2,3,5,6,7-hexahydro-s-indacen-4-yl)carbamoyl)-5-(2-hydroxypropan-2-yl)benzenesulfonimidamide]", "IC50": "200 to 1000"}
{"smiles": "CC(C)c1cc(F)cc(C(C)C)c1NC(=O)N=S(N)(=O)c1ccc(CN(C)C)cc1", "note": "(single isomer, unassigned) [Example 132, (S)- or (R)-4-((dimethylamino)-methyl)-N′-(4-fluoro-2,6-diisopropylphenylcarbamoyl)-benzenesulfonimidamide]", "IC50": "1000 to 5000"}
{"tested_on": "IL-1β production in PMA-differentiated THP-1 cells", "assay": "IL-1β production in PMA-differentiated THP-1 cells stimulated with gramicidin (hTHP-1 assay, HTRF readout; Procedures 1-3)", "format": "cell-based, human", "details": "Homo sapiens, THP-1, hTHP-1 assay containing 2% fetal bovine serum; average; given as bound; read-out: hTHP-1 IC50 (Average IC50 of compounds in hTHP-1 assay)", "outline": "as §1", "units": {"IC50": "nM"}}
{"smiles": "Cc1cc(NC(=O)N=S(N)(=O)c2ccc(C(C)(C)O)s2)cc(C)n1", "note": "(stereo not drawn) [compound 78, N-((2,6-dimethylpyridin-4-yl)carbamoyl)-5-(2-hydroxypropan-2-yl)thiophene-2-sulfonimidamide]", "IC50": "> 30000"}
{"smiles": "CCc1ccc2cn(C)nc2c1NC(=O)N=S(N)(=O)c1ncc(C(C)(C)O)s1", "note": "(single isomer, unassigned) [Example 329, (S) or (R)-N′-((6-ethyl-2-methyl-2H-indazol-7-yl)carbamoyl)-5-(2-hydroxypropan-2-yl)thiazole-2-sulfonimidamide]", "IC50": "> 30000"}
{"smiles": "CC(C)c1cc(OC(F)F)cc(C2CC2)c1NC(=O)N=S(N)(=O)c1ccc(CN(C)C)cc1", "note": "(single isomer, unassigned) [Example 134, (S)- or (R)-N′-(2-cyclopropyl-4-(difluoromethoxy)-6-isopropylphenylcarbamoyl)-4-((dimethylamino)methyl)benzenesulfonimidamide]", "IC50": "> 30000"}
{"smiles": "CC(C)c1cc(C#N)cc(C(C)C)c1NC(=O)N=S(N)(=O)c1sc(C(C)(C)O)nc1CO", "note": "(single isomer, unassigned) [Example 193, (R)- or (S)-N′-((4-cyano-2,6-diisopropylphenyl)carbamoyl)-4-(hydroxymethyl)-2-(2-hydroxypropan-2-yl)thiazole-5-sulfonimidamide]", "IC50": "> 30000"}
{"tested_on": "IL-1β production in PMA-differentiated THP-1 cells", "assay": "IL-1β production in PMA-differentiated THP-1 cells stimulated with gramicidin (hTHP-1 assay, HTRF readout; Procedures 1-3)", "format": "cell-based, human", "details": "hTHP-1 assay containing 2% fetal bovine serum; average; class symbols; read-out: hTHP-1 IC50 (Average IC50 of compounds in hTHP-1 assay)", "outline": "as §1", "units": {"IC50": "nM"}}
{"smiles": "CC(C)(O)c1ncc(S(N)(=O)=NC(=O)Nc2c3c(cc4c2CCC4O)CCC3)s1", "note": "(single isomer, unassigned) [Example 340, (S, R) or (S, S)-N′-((1-hydroxy-1,2,3,5,6,7-hexahydro-s-indacen-4-yl)carbamoyl)-2-(2-hydroxypropan-2-yl)thiazole-5-sulfonimidamide]", "IC50": "1000 to 5000"}
